# Molecular target: T1, DGAT1 (Homo sapiens, UniProt O75907)
# T1 construct: host or cells: HepG2 cell homogenate (supernatant after sonication and 2000×g centrifugation)
# T1 sequence (O75907 1-488): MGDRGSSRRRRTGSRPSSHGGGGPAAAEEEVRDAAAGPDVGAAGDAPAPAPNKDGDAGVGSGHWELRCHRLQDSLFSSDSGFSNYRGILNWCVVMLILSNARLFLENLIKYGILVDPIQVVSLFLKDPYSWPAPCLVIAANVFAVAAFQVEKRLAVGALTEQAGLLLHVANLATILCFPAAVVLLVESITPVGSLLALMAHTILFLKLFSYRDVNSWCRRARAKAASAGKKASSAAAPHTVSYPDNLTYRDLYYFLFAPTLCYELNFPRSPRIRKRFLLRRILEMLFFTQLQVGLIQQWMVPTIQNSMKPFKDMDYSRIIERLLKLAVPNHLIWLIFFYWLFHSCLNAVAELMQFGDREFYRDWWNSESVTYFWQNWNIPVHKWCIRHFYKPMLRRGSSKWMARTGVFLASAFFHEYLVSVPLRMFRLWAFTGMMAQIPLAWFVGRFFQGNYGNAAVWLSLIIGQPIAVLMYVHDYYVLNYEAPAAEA
# Test: Assay for inhibition of DGAT1 activity (IC50), in vitro enzymatic assay using homogenates of HepG2 cell line
# Assay type: biochemical
# Settings: inhibitory activity against DGAT1; HepG2 protein (25 μg), 1,2-dioleoyl-sn-glycerol (30 μM), 14C oleoyl coenzyme A (10 μM), room temperature, 60 mins
# Description: In order to identify DGAT1 inhibitors, in vitro enzymatic assays were performed by using homogenates of HepG2 cell line (ATCC, USA, HB-8065). Briefly stated, HepG2 cells were inoculated in 10% FBS-supplemented medium at 1.0×10^7 cells/well, cultured at 37° C., and harvested 72 hrs later. The harvested cells were lysed by ultrasonic treatment, and centrifuged for at 4° C. (2000×g, 10 mins) to remove any uncracked cells and impurities. The supernatant thus formed was obtained, and stored at −70° C. after its protein contents were quantitatively analyzed.
# DGAT1 activation was assayed by a modification of the method described by Coleman (Methods in Enzymology, 1992, 209, 98-102). The compound of the present invention ([…]) was incubated with HepG2 protein (25 μg), MgCl2 (150 mM) and 1,2-dioleoyl-sn-glycerol (30 μM) in a total assay volume of 200 μL in plastic tubes.
# The reaction was started by adding ^14C oleoyl coenzyme A (10 μM final concentration) and incubated at room temperature for 60 mins. The reaction was ended when a mixed solution (300 μL) of 2-propanol and heptane (7:1) was added thereto. Radioactive triolein product was separated into the organic phase by adding heptane (200 μL) and 1.0 M carbonate buffer (200 μL, pH 9.5). DGAT1 activity was quantified by counting aliquots of the upper heptane layer by liquid […].
row,SMILES,IC50
1,"O=C(O)Cc1ccc(-c2csc3c(-c4ccc(NC(=O)Nc5ccnc(Cl)c5)cc4)ncnc23)cc1 [Example 34, 2-(4-(4-(4-(3-(2-chloropyridin-4-yl)ureido)phenyl)thieno[3,2-d]pyrimidin-7-yl)phenyl)acetic acid]",< 10 nM
2,"CN(C)c1ccc(NC(=O)Nc2ccc(-c3ncnc4c(-c5ccc(CC(=O)O)cc5)csc34)cc2)cc1 [Example 35, 2-(4-(4-(4-(3-(4-(dimethylamino)phenyl)ureido)phenyl)thieno[3,2-d]pyrimidin-7-yl)phenyl)acetic acid]",< 10 nM
3,"O=C(O)CCc1ccc(-c2csc3c(-c4ccc(NC(=O)Nc5cccc(F)c5)cc4)ncnc23)cc1 [Example 39, 3-(4-(4-(4-(3-(3-fluorophenyl)ureido)phenyl)thieno[3,2-d]pyrimidin-7-yl)phenyl)propanoic acid]",< 1 nM
4,"CN(C)c1ccc(NC(=O)Nc2ccc(-c3ncnc4c(-c5ccc(CCC(=O)O)cc5)csc34)cc2)cc1 [Example 40, 3-(4-(4-(4-(3-(4-(dimethylamino)phenyl)ureido)phenyl)thieno[3,2-d]pyrimidin-7-yl)phenyl)propanoic acid]",< 1 nM
5,"O=C(O)CCc1ccc(-c2csc3c(-c4ccc(NC(=O)Nc5cc(Cl)ccn5)cc4)ncnc23)cc1 [Example 42, 3-(4-(4-(4-(3-(4-chloropyridin-2-yl)ureido)phenyl)thieno[3,2-d]pyrimidin-7-yl)phenyl)propanoic acid]",< 5 nM
6,"O=C(O)CCc1ccc(-c2csc3c(-c4ccc(NC(=O)Nc5ccc(N6CCOCC6)cc5)cc4)ncnc23)cc1 [Example 44, 3-(4-(4-(4-(3-(4-morpholinophenyl)ureido)phenyl)thieno[3,2-d]pyrimidin-7-yl)phenyl)propanoic acid]",< 10 nM
7,"COc1ccc(Cl)c(NC(=O)Nc2ccc(-c3ncnc4c(-c5ccc(CCC(=O)O)cc5)csc34)cc2)c1 [Example 46, 3-(4-(4-(4-(3-(2-chloro-5-methoxyphenyl)ureido)phenyl)thieno[3,2-d]pyrimidin-7-yl)phenyl)propanoic acid]",< 5 nM
8,"O=C(O)CCc1ccc(-c2csc3c(-c4ccc(NC(=O)Nc5ccc(-c6nn[nH]n6)cc5)cc4)ncnc23)cc1 [Example 49, 3-(4-(4-(4-(3-(4-(2H-tetrazol-5-yl)phenyl)ureido)phenyl)thieno[3,2-d]pyrimidin-7-yl)phenyl)propanoic acid]",< 1 nM
9,"CN1CCN(c2ccc(NC(=O)Nc3ccc(-c4ncnc5c(-c6ccc(CCC(=O)O)cc6)csc45)cc3)cc2)CC1 [Example 50, 3-(4-(4-(4-(3-(4-(4-methylpiperazin-1-yl)phenyl)ureido)phenyl)thieno[3,2-d]pyrimidin-7-yl)phenyl)propanoic acid]",< 20 nM
10,"CN1CCC(NC(=O)Nc2ccc(-c3ncnc4c(-c5ccc(CCC(=O)O)cc5)csc34)cc2)CC1 [Example 51, 3-(4-(4-(4-(3-(1-methylpiperidin-4-yl)ureido)phenyl)thieno[3,2-d]pyrimidin-7-yl)phenyl)propanoic acid]",< 1 nM
11,"O=C(O)CCc1ccc(-c2csc3c(-c4ccc(NC(=O)Nc5ccc(N6CCCC6)cc5)cc4)ncnc23)cc1 [Example 52, 3-(4-(4-(4-(3-(4-(pyrrolidin-1-yl)phenyl)ureido)phenyl)thieno[3,2-d]pyrimidin-7-yl)phenyl)propanoic acid]",< 1 nM
12,"O=C(O)CCc1ccc(-c2csc3c(-c4ccc(NC(=O)Nc5ccc(-n6cnnc6)cc5)cc4)ncnc23)cc1 [Example 53, 3-(4-(4-(4-(3-(4-(4H-1,2,4-triazol-4-yl)phenyl)ureido)phenyl)thieno[3,2-d]pyrimidin-7-yl)phenyl)propanoic acid]",< 50 nM
13,"O=C(O)CCc1ccc(-c2csc3c(-c4ccc(NC(=O)Nc5cccc(C(F)(F)F)c5F)cc4)ncnc23)cc1 [Example 55, 3-(4-(4-(4-(3-(2-fluoro-3-(trifluoromethyl)phenyl)ureido)phenyl)thieno[3,2-d]pyrimidin-7-yl)phenyl)propanoic acid]",< 5 nM
14,Cn1cc(-c2ccc(CCC(=O)O)cc2)c2ncnc(-c3ccc(NC(=O)Nc4ccccc4Cl)cc3)c21 [Example 57],< 50 nM
15,"CC(C)(C(=O)O)c1ccc(-c2csc3c(-c4ccc(NC(=O)Nc5cccc(Cl)c5)cc4)ncnc23)cc1 [Example 59, 2-(4-(4-(4-(3-(3-chlorophenyl)ureido)phenyl)thieno[3,2-d]pyrimidin-7-yl)phenyl)-2-methylpropanoic acid]",< 1 nM
16,"O=C(O)Cc1ccc(-c2csc3c(-c4ccc(Nc5nc6ccccc6s5)cc4)ncnc23)cc1 [Example 61, 2-(4-(4-(4-(benzo[d]thiazol-2-ylamino)phenyl)thieno[3,2-d]pyrimidin-7-yl)phenyl)acetic acid]",< 5 nM
